Test results: patent publication US11076594B2, “Pyrazolone compound or salt thereof, preparation method therefor, herbicide composition and use thereof” (QINGDAO KINGAGROOT CHEMICAL COMPOUNDS CO., LTD., priority 2015, dated 2021)

Experiments:
Assay type in all cases: in vivo
[1] = test system: Indian mallow; assay: weed control effect in post-emergence stage (Table 1); design: key: Level 10: completely dead; Level 9: above 95% growth control rate; Level 8: above 90% growth control rate; Level 7: above 80% growth control rate; Level 6: above 70% growth control rate; Level 5: above 60% growth control rate; Level 4: above 50% growth control rate; Level 3: above 20% growth control rate; Level 2: 5%-20% growth control rate; Level 1: below 5% growth control rate; conditions: post-emergence spray at 4-5 leaf stage, 250 g/ha active ingredient with 450 kg/ha water, rated after 3 weeks in greenhouse
Outline: (§1)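 Greenhouse pot test; foliar spray at 4-5 leaf stage; acetone + Tween 80 + water formulation; 3 wk post-treatment fresh-weight control rate.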

[2] = test system: bidens bipinnata; assay: as above; design: key: Level 10: completely dead; Level 9: above 95% growth control rate; Level 8: above 90% growth control rate; Level 7: above 80% growth control rate; Level 6: above 70% growth control rate; Level 5: above 60% growth control rate; Level 4: above 50% growth control rate; Level 3: above 20% growth control rate; Level 2: 5%-20% growth control rate; Level 1: below 5% growth control rate; conditions: post-emergence spray at 4-5 leaf stage, 250 g/ha active ingredient with 450 kg/ha water, rated after 3 weeks in greenhouse
Outline: as §1

[3] = test system: crab grass; assay: as above; design: key: Level 10: completely dead; Level 9: above 95% growth control rate; Level 8: above 90% growth control rate; Level 7: above 80% growth control rate; Level 6: above 70% growth control rate; Level 5: above 60% growth control rate; Level 4: above 50% growth control rate; Level 3: above 20% growth control rate; Level 2: 5%-20% growth control rate; Level 1: below 5% growth control rate; conditions: post-emergence spray at 4-5 leaf stage, 250 g/ha active ingredient with 450 kg/ha water, rated after 3 weeks in greenhouse
Outline: as §1

[4] = test system: echinochloa; assay: as above; design: key: Level 10: completely dead; Level 9: above 95% growth control rate; Level 8: above 90% growth control rate; Level 7: above 80% growth control rate; Level 6: above 70% growth control rate; Level 5: above 60% growth control rate; Level 4: above 50% growth control rate; Level 3: above 20% growth control rate; Level 2: 5%-20% growth control rate; Level 1: below 5% growth control rate; conditions: post-emergence spray at 4-5 leaf stage, 250 g/ha active ingredient with 450 kg/ha water, rated after 3 weeks in greenhouse
Outline: as §1

[5] = test system: foxtail; assay: as above; design: key: Level 10: completely dead; Level 9: above 95% growth control rate; Level 8: above 90% growth control rate; Level 7: above 80% growth control rate; Level 6: above 70% growth control rate; Level 5: above 60% growth control rate; Level 4: above 50% growth control rate; Level 3: above 20% growth control rate; Level 2: 5%-20% growth control rate; Level 1: below 5% growth control rate; conditions: post-emergence spray at 4-5 leaf stage, 250 g/ha active ingredient with 450 kg/ha water, rated after 3 weeks in greenhouse
Outline: as §1

[6] = test system: rorippa indica; assay: as above; design: key: Level 10: completely dead; Level 9: above 95% growth control rate; Level 8: above 90% growth control rate; Level 7: above 80% growth control rate; Level 6: above 70% growth control rate; Level 5: above 60% growth control rate; Level 4: above 50% growth control rate; Level 3: above 20% growth control rate; Level 2: 5%-20% growth control rate; Level 1: below 5% growth control rate; conditions: post-emergence spray at 4-5 leaf stage, 250 g/ha active ingredient with 450 kg/ha water, rated after 3 weeks in greenhouse
Outline: as §1

[7] = test system: corn; assay: post-emergence stage experiment, crop (Table 1); conditions: post-emergence spray at 4-5 leaf stage, 250 g/ha active ingredient with 450 kg/ha water, rated after 3 weeks in greenhouse
Outline: as §1

[8] = test system: wheat; assay: post-emergence stage experiment, crop (Table 1); conditions: post-emergence spray at 4-5 leaf stage, 250 g/ha active ingredient with 450 kg/ha water, rated after 3 weeks in greenhouse
Outline: as §1

[9] = test system: rice; assay: post-emergence stage experiment, crop (Table 1); conditions: post-emergence spray at 4-5 leaf stage, 250 g/ha active ingredient with 450 kg/ha water, rated after 3 weeks in greenhouse
Outline: as §1

[10] = test system: wheat; assay: wheat field test, crop selectivity, greenhouse spray at 4 leaf stage; conditions: 250 g/ha of the active substance; 4 weeks after treatment
Outline: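 Read-out: fresh weight control rate, scored 4 weeks after a post-emergence spray. Treatment at 4 leaf stage (2-3 weeks after sowing); compound dissolved in acetone, with methyl oleate emulsion, diluted with water.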

[11] = test system: chickweed; assay: wheat field resistant broadleaf weed control, greenhouse spray at 4 leaf stage; design: key: Level 10: completely dead; Level 9: above 95% growth control rate; Level 8: above 90% growth control rate; Level 7: above 80% growth control rate; Level 6: above 70% growth control rate; Level 5: above 60% growth control rate; Level 4: above 50% growth control rate; Level 3: above 20% growth control rate; Level 2: 5%-20% growth control rate; Level 1: below 5% growth control rate; conditions: 250 g/ha of the active substance; 4 weeks after treatment; ALS inhibitor resistant
Outline: (§2)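 Greenhouse post-emergence test. Weeds were treated at the 4 leaf stage, 2-3 weeks after sowing, and cultured for 4 weeks before fresh weight control rate was determined.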

[12] = test system: corn gromwell; assay: as above; design: key: Level 10: completely dead; Level 9: above 95% growth control rate; Level 8: above 90% growth control rate; Level 7: above 80% growth control rate; Level 6: above 70% growth control rate; Level 5: above 60% growth control rate; Level 4: above 50% growth control rate; Level 3: above 20% growth control rate; Level 2: 5%-20% growth control rate; Level 1: below 5% growth control rate; conditions: 250 g/ha of the active substance; 4 weeks after treatment; ALS inhibitor resistant
Outline: as §2

[13] = test system: flixweed; assay: as above; design: key: Level 10: completely dead; Level 9: above 95% growth control rate; Level 8: above 90% growth control rate; Level 7: above 80% growth control rate; Level 6: above 70% growth control rate; Level 5: above 60% growth control rate; Level 4: above 50% growth control rate; Level 3: above 20% growth control rate; Level 2: 5%-20% growth control rate; Level 1: below 5% growth control rate; conditions: 250 g/ha of the active substance; 4 weeks after treatment; ALS inhibitor resistant
Outline: as §2

[14] = test system: shepherd's purse; assay: as above; design: key: Level 10: completely dead; Level 9: above 95% growth control rate; Level 8: above 90% growth control rate; Level 7: above 80% growth control rate; Level 6: above 70% growth control rate; Level 5: above 60% growth control rate; Level 4: above 50% growth control rate; Level 3: above 20% growth control rate; Level 2: 5%-20% growth control rate; Level 1: below 5% growth control rate; conditions: 250 g/ha of the active substance; 4 weeks after treatment; ALS inhibitor resistant
Outline: as §2

Compound	effect on crop, Corn (level) [7]	effect on crop, Wheat (level) [8]	weed control effect, Indian mallow (level) [1]	weed control effect, Bidens bipinnata (level) [2]	weed control effect, Crab grass (level) [3]	weed control effect, Echinochloa (level) [4]	weed control effect, Green foxtail (level) [5]	weed control effect, Rorippa indica (level) [6]	effect on crop, Rice (level) [9]	Wheat (activity level, crop damage) [10]	chickweed weed controlling effect (activity level) [11]	corn gromwell weed controlling effect (activity level) [12]	flixweed weed controlling effect (activity level) [13]	shepherd's purse weed controlling effect (activity level) [14]
Cc1nn(C)cc1C(=O)Oc1c(C(=O)c2ccc(C(F)(F)F)c(N3CCCCCC3=O)c2Cl)cnn1C [Compound 052]	1 (Level 1: below 5% growth control rate)	0	10	1 (Level 1: below 5% growth control rate)	4 (Level 4: above 50% growth control rate)	5 (Level 5: above 60% growth control rate)	1 (Level 1: below 5% growth control rate)	10	1 (Level 1: below 5% growth control rate)	0	10	10	10	10
CCn1nc(C)c(C(=O)c2ccc(C(F)(F)F)c(N3CCCCCC3=O)c2Cl)c1OC(=O)c1cn(C)nc1C [Compound 119]	3 (Level 3: above 20% growth control rate)	1 (Level 1: below 5% growth control rate)	3 (Level 3: above 20% growth control rate)	5 (Level 5: above 60% growth control rate)	5 (Level 5: above 60% growth control rate)	10	9 (Level 9: above 95% growth control rate)	10	6 (Level 6: above 70% growth control rate)	1 (Level 1: below 5% growth control rate)	10	10	10	10
CCn1nc(C)c(C(=O)c2ccc(C(F)(F)F)c(-n3cc(C)cn3)c2Cl)c1O [Compound 138]	2 (Level 2: 5%-20% growth control rate)	1 (Level 1: below 5% growth control rate)	0	5 (Level 5: above 60% growth control rate)	5 (Level 5: above 60% growth control rate)	10	10	10	7 (Level 7: above 80% growth control rate)	1 (Level 1: below 5% growth control rate)	10	10	10	10

Further lines, with some results ahead:

effect on crop, Corn (level) [7]	effect on crop, Wheat (level) [8]	Compound	weed control effect, Indian mallow (level) [1]	weed control effect, Bidens bipinnata (level) [2]	weed control effect, Crab grass (level) [3]	weed control effect, Echinochloa (level) [4]	weed control effect, Green foxtail (level) [5]	weed control effect, Rorippa indica (level) [6]	effect on crop, Rice (level) [9]	Wheat (activity level, crop damage) [10]	chickweed weed controlling effect (activity level) [11]	corn gromwell weed controlling effect (activity level) [12]	flixweed weed controlling effect (activity level) [13]	shepherd's purse weed controlling effect (activity level) [14]
0	0	CCOc1c(C(=O)Oc2c(C(=O)c3ccc(C(F)(F)F)c(N4CCCCCC4=O)c3Cl)c(C3CC3)nn2C)cnn1C [Compound 060]	10	7 (Level 7: above 80% growth control rate)	3 (Level 3: above 20% growth control rate)	5 (Level 5: above 60% growth control rate)	1 (Level 1: below 5% growth control rate)	10	1 (Level 1: below 5% growth control rate)	0	10	10	10	10
0	0	CCOc1c(C(=O)Oc2c(C(=O)c3ccc(C(F)(F)F)c(N4CCCCCC4=O)c3Cl)c(C)nn2C)cnn1C [Compound 056]	10	5 (Level 5: above 60% growth control rate)	3 (Level 3: above 20% growth control rate)	5 (Level 5: above 60% growth control rate)	1 (Level 1: below 5% growth control rate)	10	3 (Level 3: above 20% growth control rate)	0	10	10	10	10
